Reference: patent publication US5489609A (Zaidan Hoijn Seisan Kaihatsu Kagaku Kenkyusho, priority 1992, dated 1996)

Experiments:
[1] = test system: Hepatopathy in mice (carbon tetrachloride); test: Anti-hepatitis test: hepatopathy in mice (carbon tetrachloride); assay type: in vivo, ddy strain male mice; conditions: for ALT, mean ± S.D. / AST, mean ± S.D.: 200 mg/kg orally 3 h after carbon tetrachloride, blood 24 h after carbon tetrachloride, * p < 0.05
Method: A group of 8 ddy strain male mice (weighing about 30 g) kept fasting from the previous day was treated by intraperitoneal injection of 0.5% carbon tetrachloride in olive oil at a dose of 0.6 ml and thereafter allowed free access to food. Three hours after the administration of carbon tetrachloride, the test compound suspended in powdered gum arabic was given to the animals orally at a dose of 200 mg/kg, and blood samples were drawn from the mice under anesthesia with ether through the abdominal descending aorta 24 hours after the administration of carbon tetrachloride. The collected blood was centrifuged at a rate of 3,000 rpm for 15 min, followed by measurement of the activities of aspartate transaminase (AST) and alanine transaminase (ALT) by means of the Lippie method.

[2] = test system: isolated liver cells of rats; test: Disorder of isolated liver cells (carbon tetrachloride vapor; ALT and AST leached out); assay type: cell-based; conditions: 37° C., 30 min, * p < 0.05
Method: Isolated liver cells of rats were prepared by means of the Segren's collagenase irrigation method, whereby a liver cell suspension was prepared to a concentration of […]. Into 2 ml of the suspension placed in an Erlenmeyer flask was put a test tube of about 0.5 ml capacity containing a 25% carbon tetrachloride solution in olive oil to saturate the reaction system with carbon tetrachloride vapor, and after the flask was tightly stoppered, preincubation was carried out at 37° C. for 30 min. One ml of a solution of the test compound in Hunk's solution was added to the suspension of liver cells, while 1 ml of Hunk's solution was added to a control. After the reaction was allowed to proceed at 37° C. for 30 min, a specifically determined volume of the reaction solution was pipetted out and immediately centrifuged under 500 g for 30 seconds, and ALT and AST leached out into the supernatant liquid were determined for activity by the Lippie method.

acetaldehyde toxicity = test: Protective activity against acetaldehyde toxicity (death rate within 24 hours); assay type: in vivo, Rats; conditions: 30 min before acetaldehyde 1,200 mg/kg, 24 h
Method: Rats kept fasting with a supply of drinking water were weighed and divided into groups in such a manner that the mean body weight was uniform among the groups, with each group consisting of 10 heads. The rats were given acetaldehyde orally at a dose of 1,200 mg/kg, and the death rate within 24 hours was determined, wherein the test drug substances were administered orally 30 min before the application of acetaldehyde, with the vehicle (0.5% aqueous sodium carboxymethylcellulose) alone being given to a control group.

[3] = test system: Stomach injury with hydrochloric acid/ethanol; test: Anti-ulcer test: stomach injury with hydrochloric acid/ethanol; assay type: in vivo, male rats of KBL Wistar strain
Method: The rats were divided into groups each consisting of 8 heads in such a way that their mean body weights were nearly uniform among the groups, treated by oral administration of hydrochloric acid/ethanol (0.15 mole hydrochloric acid solution in 80% ethanol) at a dose of 5 ml/kg body weight and sacrificed through cervical vertebrae dislocation 1 hour after administration. The stomachs were removed and treated with formalin, and individual ulcers formed in the glandular portion of the stomach were measured in length (mm), with the measured ulcer lengths summed for each rat. The test compound was suspended in a 0.5% aqueous solution of sodium carboxymethylcellulose, and the suspension was given to the test group orally at a dose of 10 ml/kg body weight 30 min before administration of hydrochloric acid/ethanol, whereas the vehicle (0.5% aqueous sodium carboxymethyl-cellulose) alone was applied to a control group.

[4] = test system: Stomach injury through water-immersion constraint stress; test: Anti-ulcer test: stomach injury through water-immersion constraint stress; assay type: in vivo, male rats of KBL Wistar strain
Method: The rats were divided into groups each consisting of 8 heads in such a way that their mean body weights were nearly uniform among the groups, stress-loaded by soaking the animals placed in a stress cage of Univ. of Tokyo type in a water tank at 23° C. up to the xiphoid and then sacrificed through cervical vertebrae dislocation 7.5 hours later. The stomachs were removed and treated with formalin, and individual ulcers formed in the glandular portion of the stomach were measured in length (mm), with the measured ulcer lengths being summed for each rat. The test compound, suspended in a 0.5% aqueous solution of sodium carboxymethylcellulose, was given to the test group orally at a dose of 10 ml/kg body weight 30 min before the water-soaking constraint, whereas the vehicle alone was applied to a control group.

[5] = test system: Rats of KBL Wistar strain; test: Acute toxicity test; assay type: in vivo; conditions: 7 day period
Method: Rats of KBL Wistar strain (weighing about […]), divided into groups each consisting of 3 heads, were treated through oral administration of the test compound suspended in powder gum arabic, followed by observation for any abnormalities over a 7 day period to find the number of dead animals.

[6] = conc. of test soln. 0.0125 mg/dl
[7] = conc. of test soln. 0.025 mg/dl
[8] = 50 mg/kg orally, vs Vehicle No. 1
[9] = 150 mg/kg orally, vs Vehicle No. 3

NCCS(=O)(=O)O [2-Aminoethanesulfonic acid]
ALT, mean ± S.D. [1]: 14609.6 ± 1684.5 IU | AST, mean ± S.D. [1]: 12885.2 ± 2468.3 IU | suppressory activity (hepatopathy in mice) ([1]; 200 mg/kg orally, in words): none of 2-aminoethanesulfonic acid, glutathione and glycyrrhizin that were used as controls at the same dose developed suppressory activity | ALT, mean ± S.D. [2, 6]: 847.6 ± 60.4 IU | AST, mean ± S.D. [2, 6]: 338.8 ± 37.1 IU | ALT, mean ± S.D. [2, 7]: 869.8 ± 87.6 IU | AST, mean ± S.D. [2, 7]: 309.8 ± 32.4 IU | ALT, mean ± S.D. ([2]; conc. of test soln. 0.05 mg/dl): 849.1 ± 60.2 IU | AST, mean ± S.D. ([2]; conc. of test soln. 0.05 mg/dl): 296.3 ± 30.5 IU | ALT, mean ± S.D. ([2]; conc. of test soln. 0.1 mg/dl): 867.7 ± 158.8 IU | AST, mean ± S.D. ([2]; conc. of test soln. 0.1 mg/dl): 318.8 ± 49.5 IU | Death rate (acetaldehyde toxicity; 250 mg/kg orally): 60% | No. of dead animals (n/10) (acetaldehyde toxicity; 250 mg/kg orally): 6/10 | Death rate (acetaldehyde toxicity; 500 mg/kg orally): 50% | No. of dead animals (n/10) (acetaldehyde toxicity; 500 mg/kg orally): 5/10

NCCS(=O)(=O)O.NCCS(=O)(=O)O.NCCS(=O)(=O)[O-].NCCS(=O)(=O)[O-].[Zn+2] [FTZ, [Bis(2-aminoethanesulfonic acid).bis(2-aminoethanesulfonate)]zinc]
ALT, mean ± S.D. [1]: 8597.1 ± 1450.4 IU | AST, mean ± S.D. [1]: 7024.7 ± 1113.4 IU | ALT, mean ± S.D. [2, 6]: 414.7 ± 36.2 IU | AST, mean ± S.D. [2, 6]: 198.2 ± 22.5 IU | ALT, mean ± S.D. [2, 7]: 459.0 ± 93.8 IU | AST, mean ± S.D. [2, 7]: 186.8 ± 35.3 IU | ALT, mean ± S.D. ([2]; conc. of test soln. 0.05 mg/dl): 389.2 ± 7.3 IU | AST, mean ± S.D. ([2]; conc. of test soln. 0.05 mg/dl): 79.4 ± 12.3 IU | ALT, mean ± S.D. ([2]; conc. of test soln. 0.1 mg/dl): 435.7 ± 25.3 IU | AST, mean ± S.D. ([2]; conc. of test soln. 0.1 mg/dl): 33.5 ± 3.5 IU | Death rate (acetaldehyde toxicity; 250 mg/kg orally): 40% | No. of dead animals (n/10) (acetaldehyde toxicity; 250 mg/kg orally): 4/10 | Death rate (acetaldehyde toxicity; 500 mg/kg orally): 20% | No. of dead animals (n/10) (acetaldehyde toxicity; 500 mg/kg orally): 2/10 | Incidence of ulcer ([3]; 50 mg/kg orally): 8/8 | Ulcer coefficient (mm) mean ± S.E. ([3]; 50 mg/kg orally, * P < 0.01): 30.4 ± 7.8 mm | Suppression % [3, 8]: 35.5% | Incidence of ulcer ([3]; 75 mg/kg orally): 8/8 | Ulcer coefficient (mm) mean ± S.E. ([3]; 75 mg/kg orally): 30.2 ± 10.2 mm | Suppression % ([3]; 75 mg/kg orally, vs Vehicle No. 2): 42.5% | Incidence of ulcer ([3]; 150 mg/kg orally): 8/8 | Ulcer coefficient (mm) mean ± S.E. ([3]; 150 mg/kg orally, * P < 0.01): 11.7 ± 4.7 mm | Suppression % [3, 9]: 67.9% | UD50 (mg/kg) (95% C.L.) ([3]; oral, 30 min before hydrochloric acid/ethanol): 86.0 mg/kg | Incidence of ulcer ([4]; 50 mg/kg orally): 8/8 | Ulcer coefficient (mm) mean ± S.E. ([4]; 50 mg/kg orally): 28.5 ± 4.6 mm | Suppression % [4, 8]: 10.7% | Incidence of ulcer ([4]; 100 mg/kg orally): 8/8 | Ulcer coefficient (mm) mean ± S.E. ([4]; 100 mg/kg orally, * p < 0.01): 14.4 ± 3.2 mm | Suppression % ([4]; 100 mg/kg orally, vs Vehicle No. 2): 37.1% | Incidence of ulcer ([4]; 150 mg/kg orally): 8/8 | Ulcer coefficient (mm) mean ± S.E. ([4]; 150 mg/kg orally, ** p < 0.01): 17.9 ± 3.2 mm | Suppression % [4, 9]: 48.4% | UD50 (mg/kg) (95% C.L.) ([4]; oral, 30 min before water-soaking constraint): 146.9 mg/kg | Nd/No (No. of dead animals / total No.) ([5]; 1,250 mg/kg oral): 0/3 | Nd/No (No. of dead animals / total No.) ([5]; 2,500 mg/kg oral): 0/3 | Nd/No (No. of dead animals / total No.) ([5]; 5,000 mg/kg oral): 0/3
